From PubChem BioAssay (NCI)
“And” between values parts separate entries of the source, which are not always exact repeats. Equal values may be shown once.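 Cells were grown in 96-well plates and exposed to each compound for 48 hours at five concentrations; endpoints were interpolated linearly between bracketing concentrations, or set to the highest concentration if not reached. GI50 is the concentration that inhibits growth by half. TGI denotes the concentration required for complete inhibition of growth.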

What was measured:
Experiment in all cases: NCI-60 cell line screen, 48 h
[1] = test system: MDA-MB-231 breast
[2] = test system: OVCAR-4 ovarian
[3] = test system: OVCAR-5 ovarian
[4] = test system: SNB-19 CNS
[5] = test system: UO-31 renal
[6] = test system: SK-MEL-28 melanoma
[7] = test system: IGROV1 ovarian
[8] = test system: 786-0 renal
[9] = test system: NCI/ADR-RES ovarian
[10] = test system: MCF7 breast

Structure (SMILES)	GI50 [1]	TGI [1]	GI50 [2]	TGI [2]	GI50 [3]	TGI [3]	GI50 [4]	TGI [4]	GI50 [5]	TGI [5]	GI50 [6]	TGI [6]	GI50 [7]	TGI [7]	GI50 [8]	TGI [8]	GI50 [9]	TGI [9]	GI50 [10]	TGI [10]
O=C(Nc1cnn2ccc(N3CCC[C@@H]3c3cc(F)ccc3F)nc12)N1CC[C@H](O)C1	> 100 µM	> 100 µM	> 100 µM	> 100 µM	> 100 µM	> 100 µM	> 100 µM	> 100 µM	> 100 µM	> 100 µM	> 100 µM	> 100 µM	> 100 µM	> 100 µM	> 100 µM	> 100 µM	> 100 µM	> 100 µM	> 100 µM	> 100 µM
CC[N+](CC)=c1ccc2nc3c(cc(NCc4ccccc4)c4ccccc43)oc-2c1	0.214 µM	1.72 µM	0.176 µM	1.63 µM	0.681 µM	2.19 µM	1.19 µM	2.51 µM	0.089 µM	1.15 µM	1.2 µM	2.47 µM	0.258 µM	1.67 µM	0.497 µM	1.85 µM	0.227 µM	1.76 µM	0.165 µM	0.474 µM
C=C(CN1CCN(c2cccc(C(F)(F)F)c2)CC1)c1ccc(C(=O)Nc2ccccc2N)cc1	0.941 µM	3.39 µM	3.94 µM	41 µM	6.63 µM	26.4 µM	4.11 µM	> 30.2 µM	2.4 µM	12.1 µM	3.4 µM	> 27.2 µM	14.2 µM	> 50 µM	1.1 µM	8.96 µM	2.34 µM	> 50 µM	1.25 µM	> 27.5 µM
O=c1cccc(C#Cc2ccccc2)o1	6.05 µM	25.8 µM	18.4 µM	44.5 µM	6.35 µM	16.1 µM	10.5 µM	37.6 µM	3.41 µM	> 35.1 µM	15 µM	40.2 µM	9.58 µM	> 87.3 µM	2.2 µM	15 µM	7.11 µM	> 26.6 µM	4.37 µM	> 100 µM
Cc1ccc(N=C2CSc3nnc(-c4csc5c4CCCC5)n3N2)cc1	0.369 µM	> 50 µM	> 50 µM	> 50 µM	0.932 µM	> 50 µM	0.222 µM	> 50 µM	0.43 µM	> 50 µM	8.24 µM	> 50 µM	0.446 µM	> 50 µM	0.297 µM	> 50 µM	0.167 µM	> 50 µM	0.165 µM	> 50 µM
COc1cc2c3c(n(CCCN4CCN(C)CC4)c(=O)c2cc1OC)-c1cc2c(cc1C3=O)OCO2	15.3 µM	32.4 µM	4.17 µM	18.6 µM	17.6 µM	31.4 µM	> 100 µM	> 100 µM	20.6 µM	62.8 µM	16.5 µM	43.2 µM	7.05 µM	80.6 µM	12.9 µM	25.5 µM	1.55 µM	12.9 µM	8.82 µM	64.8 µM
COc1cc2cc(Oc3ccc(NC(=O)Nc4ccccc4)cc3)c(C)nc2cc1OCCN1CCCCC1	6.39 µM	12.1 µM	6.96 µM	18.2 µM	6 µM	11.5 µM	5.77 µM	11 µM	3.87 µM	7.94 µM	5.41 µM	9.92 µM	5.68 µM	11 µM	5.58 µM	11.1 µM	6.54 µM	14.5 µM	5.14 µM	10 µM
NCCNCC(O)CO (stereo not drawn)	–	> 100 µM	–	> 100 µM	–	> 100 µM	–	> 100 µM	–	> 100 µM	–	> 100 µM	–	> 100 µM	–	> 100 µM	–	> 100 µM	–	> 100 µM
O=C1/C(=C/c2ccccc2)SC(=Nc2ccccc2)N1Nc1ccccc1	18.7 µM	> 100 µM	7.96 µM	> 100 µM	34.1 µM	> 100 µM	13.5 µM	> 100 µM	7.94 µM	> 100 µM	16.2 µM	71 µM	12.7 µM	> 100 µM	6.57 µM	> 100 µM	18.1 µM	> 100 µM	7.91 µM	83.5 µM
C#CCN1CCN(C(=S)N/N=C(\C)c2ccccn2)CC1	–	3.54 µM and 5.04 µM	2.73 µM	4.74 µM and 3.84 µM	0.14 µM	4.65 µM and 3.11 µM	4.53 µM	17.2 µM	2.61 µM	4.56 µM and 3.77 µM	2.09 µM	8.06 µM and 7.04 µM	0.00303 µM	3.3 µM	0.243 µM	4.62 µM and 4.87 µM	0.0304 µM	1.68 µM and 1.56 µM	< 0.001 µM	2.73 µM and 2.9 µM
CCOC(=O)/C=C1\SC(=Nc2ccc(C#N)cc2)N(CCN2C(=O)/C(=C/C(=O)OCC)SC2=Nc2ccc(C#N)cc2)C1=O	2.09 µM	7.85 µM	2.28 µM	29.9 µM	6.75 µM	30.8 µM	2.12 µM	12.9 µM	2 µM	11.3 µM	8.86 µM	27.5 µM	1.99 µM	10.7 µM	2.08 µM	6.33 µM	3.21 µM	42.3 µM	0.353 µM	17.7 µM
N#C/C(=C/C=C(\Cl)c1ccc(Cl)cc1)C(N)=O	1.97 µM	4.82 µM	4.91 µM	> 48.2 µM	4.51 µM	17.7 µM	8.13 µM	22.7 µM	–	> 46.8 µM	3.28 µM	9.88 µM	> 20 µM	> 100 µM	1.87 µM	4.2 µM	2.67 µM	7.43 µM	4.91 µM	> 100 µM
C/C=C(\C)C(=O)O[C@@H]1C(O)[C@H]2OC(COC(=O)CCC(=O)CCCCCC[C@H](CCCCC)O[C@@H]3OC(C)[C@H](OC(C)=O)C(O)[C@H]3O2)[C@H]1OC(=O)/C=C/c1ccccc1 (stereo partly drawn)	< 0.01 µM	< 0.0114 µM	1.74 µM	42.5 µM	2.16 µM	> 64.2 µM	0.156 µM	15.5 µM	< 0.01 µM	8.34 µM	0.021 µM	9.59 µM	< 0.0163 µM	17.9 µM	0.028 µM	7.61 µM	0.336 µM	> 100 µM	< 0.01 µM	17.3 µM
COC(=O)[C@]12CC[C@@H](C)[C@H](C)[C@@H]1C1=CC[C@@H]3[C@@]4(C)C(C=O)=C[C@@](C)(COC(C)=O)[C@@H]4[C@H](O)C[C@@]3(C)[C@]1(C)CC2	2.27 µM	5.41 µM	2.64 µM	10.7 µM	2.03 µM	5.6 µM	3.22 µM	14.8 µM	1.57 µM	3.84 µM	2.16 µM	4.92 µM	2.95 µM	9.7 µM	1.89 µM	4.26 µM	2.79 µM	9.73 µM	1.94 µM	5.51 µM
CC(C)(C)OC(=O)NCCCCCCCCn1c2c(c3ccccc3c1=O)C(=O)c1ccccc1-2	13.5 µM	> 47.5 µM	> 50 µM	> 50 µM	> 43 µM	> 50 µM	14.9 µM	> 50 µM	34 µM	> 50 µM	> 50 µM	> 50 µM	14.3 µM	> 50 µM	10.8 µM	27.5 µM	> 42.1 µM	> 50 µM	> 50 µM	> 50 µM
COc1ccc(C2NCCc3c2[nH]c2ccccc32)cc1CN1CCN(c2ccc(F)cc2)CC1 (stereo not drawn)	1.4 µM	3.36 µM	2.28 µM	7.22 µM	2.13 µM	5.2 µM	3.54 µM	13 µM	1.57 µM	4.12 µM	1.61 µM	3.05 µM	2.5 µM	6.29 µM	1.71 µM	3.17 µM	2.27 µM	5.89 µM	1.66 µM	3.27 µM
COc1ccc2cc(C(=O)/C=C/c3cccc(Cl)c3Cl)ccc2c1	12.2 µM	39.6 µM	44.6 µM	> 100 µM	36.9 µM	95.2 µM	26.2 µM	> 83.3 µM	10.2 µM	> 53.2 µM	22.7 µM	> 71.9 µM	16.6 µM	> 100 µM	6.08 µM	> 41.5 µM	12.7 µM	> 100 µM	1.28 µM	> 100 µM
COc1ccc(/C=C(/C(=O)N2CCCC2)c2cc(OC)c(OC)c(OC)c2)cc1N	5.75 µM	> 100 µM	28.2 µM	> 100 µM	7.63 µM	> 100 µM	2.87 µM	> 100 µM	6.87 µM	> 100 µM	5.68 µM	> 100 µM	3.93 µM	> 100 µM	2.7 µM	> 100 µM	4.21 µM	63.9 µM	0.921 µM	> 100 µM
